Laboratory results taken from patent publication US9328138B2 (priority 2011, dated 2016).
Where a name gives a salt, the structure may show the parent alone.

Columns and labels:
[1] = molecular target: T1, HCV genotype 1b (BK) NS3 modified enzyme with a R155K mutation (Hepatitis C virus genotype 1b, UniProt P26663, R1181K); test: HCV NS3 protease time-resolved fluorescence (TRF) assay, genotype 1b R155K; type: biochemical; conditions: Ki 1b R155K
T1 construct: HCV genotype 1b (BK) NS3 modified enzyme
Procedure: (§1) The HCV NS3 protease inhibitory activity of the present compounds may be tested using assays known in the art. One such assay is HCV NS3 protease time-resolved fluorescence (TRF) assay as described below and in International Patent Application Publication No. WO2006/102087. Other examples of such assays are described in e.g., International Patent Application Publication No. WO2005/046712. The assay is performed in a final volume of 100 μl in assay buffer containing 50 mM HEPES, pH 7.5, 150 mM NaCl, 15% glycerol, 0.15% Triton X-100, 10 mM DTT, and 0.1% PEG 8000. NS3 protease is pre-incubated with various concentrations of inhibitors in DMSO for 30 minutes. The reaction is initiated by adding the TRF peptide substrate (final concentration 100 nM). NS3 mediated hydrolysis of the substrate is quenched after 1 hour at room temperature with 100 μl of 500 mM MES, pH 5.5. Product fluorescence is detected using either a VICTOR V2 or FUSION fluorophotometer (Perkin Elmer Life and Analytical Sciences) with excitation at 340 nm and emission at 615 nm with a 400 μs delay. Testing concentrations of different enzyme forms are selected to result in a signal to background ratio (S/B) of 10-30. IC50 values are derived using a standard four-parameter fit to the data. K; values are derived from IC50 values using the following formula, IC50=Ki(1+[S]/Km), Eqn (1), where [S] is the concentration of substrate peptide in the reaction and KM is the Michaelis constant. See Gallinari et al., 1999, Biochem. 38:5620-32; Gallinari et al., 1998, J. Virol. 72:6758-69; Taliani et al., 1996, Anal. Biochem. 240:60-67.
(§2) The HCV NS3 protease inhibitory activity was measured using the protease time-resolved fluorescence (TRF) assay as described below and in International Patent Application Publication No. WO 2006/102087. The assay was performed with HCV genotype 1b (BK) NS3 modified enzyme with a R155K mutation and genotype 3a (3A-1).
(§3) The assay was performed in a final volume of 50 μl in assay buffer containing 50 mM HEPES, pH 7.5, 150 mM NaCl, 15% glycerol, 0.15% TRITON X-100, 10 mM DTT, and 0.1% PEG 8000. NS3 and NS4A protease is pre-incubated with various concentrations of inhibitors in DMSO for 10 minutes. The reaction was initiated by adding the TRF peptide substrate (final concentration 25 nM) and NS3 mediated hydrolysis of the substrate proceeds for 6 hours at room temperature. Product fluorescence is detected using an Envision plate reader (Perkin Elmer) with excitation at 340 nm and emission at 615 nm with a 400 μs delay. Testing concentrations of the enzymes were selected to result in a signal to background ratio (S/B) of 5-20. IC50 values are derived using a standard four-parameter fit to the data.
(§4) NS3 and NS4A protease is pre-incubated with various concentrations of inhibitors in DMSO for 30 minutes. The reaction is initiated by adding the TRF peptide substrate (final concentration 100 nM). NS3 mediated hydrolysis of the substrate is quenched after 1 hour at room temperature with 100 μl of 500 mM MES, pH 5.5. Product fluorescence is detected using either a VICTOR V2 or FUSION fluorophotometer (Perkin Elmer Life and Analytical Sciences) with excitation at 340 nm and emission at 615 nm with a 400 μs delay. Testing concentrations of the enzymes are selected to result in a signal to background ratio (S/B) of 8-30. IC50 values are derived using a standard four-parameter fit to the data. Ki values are derived from IC50 values using the following formula, IC50=Ki(1+[S][…]), Eqn (1), where [S] is the concentration of substrate peptide in the reaction and KM is the Michaelis constant. See Gallinari et al., 1999, Biochem. 38:5620-32; Gallinari et al., 1998, J. Virol. 72:6758-69; and Taliani et al., 1996, Anal. Biochem. 240:60-67. ND means not determined.

[2] = molecular target: HCV NS3 protease genotype 3a (3A-1) (Hepatitis C virus genotype 3a, UniProt Q81258); test: HCV NS3 protease time-resolved fluorescence (TRF) assay, genotype 3a; type: biochemical; conditions: Ki 3a
Procedure: as §1, §2, §3, §4

[3] = genotype 1b (BK) NS3 R155K, single value
[4] = first of two values printed in the cell (not explained)
[5] = second of two values printed in the cell (not explained)

C=C[C@@H]1C[C@]1(NC(=O)[C@@H]1C[C@@H]2CN1C(=O)[C@H](C1CCCC1)NC(=O)O[C@]1(C)CCC[C@H]1CCCCCc1c(nc3ccccc3c1O)O2)C(=O)NS(=O)(=O)C1CC1 (single isomer, unassigned) [Example 29]
Ki [1, 3]: 0.12 nM

CC[C@@H]1C[C@]1(NC(=O)[C@@H]1C[C@@H]2CN1C(=O)[C@H](C1CCCC1)NC(=O)OC1(C)CCCC1CCCCCc1c(nc3ccccc3c1O)O2)C(=O)NS(=O)(=O)C1CC1 (single isomer, unassigned) [Example 32]
Ki [2]: 9.2 nM
Ki [1, 3]: 0.54 nM

C=C[C@@H]1C[C@]1(NC(=O)[C@@H]1C[C@@H]2CN1C(=O)[C@H](C(C)(C)C)NC(=O)O[C@@H]1C[C@H]1CCCCCc1c(nc3ccccc3c1OC1C3COCC1CN(C(=O)OC(C)(C)C)C3)O2)C(=O)NS(=O)(=O)C1(C)CC1 (single isomer, unassigned) [Example 254]
Ki [2]: 47.5 nM
Ki [1, 4]: 0.116 nM
Ki [1, 5]: 2.3 nM

C=C[C@@H]1C[C@]1(NC(=O)[C@@H]1C[C@@H]2CN1C(=O)[C@H](C(C)(C)C)NC(=O)O[C@@H]1C[C@H]1CCCCCc1c(nc3ccccc3c1OC1C3COCC1CN(C(=O)OC(C)(C)C)C3)O2)C(=O)NS(=O)(=O)C1(C)CC1 (single isomer, unassigned) [Example 255]
Ki [2]: 59.1 nM
Ki [1, 4]: 0.12 nM
Ki [1, 5]: 2.21 nM

C=C[C@@H]1CC1(NC(=O)[C@@H]1C[C@@H]2CN1C(=O)[C@H](C(C)(C)C)NC(=O)O[C@@H]1C[C@H]1CCCCCc1c(nc3ccccc3c1OC1C3CNCC1COC3)O2)C(=O)NS(=O)(=O)C1(C)CC1 (single isomer, unassigned) [Example 258, trifluoroacetate]
Ki [2]: 2.75 nM
Ki [1, 4]: 0.012 nM
Ki [1, 5]: 0.079 nM

C=C[C@@H]1CC1(NC(=O)[C@@H]1C[C@@H]2CN1C(=O)[C@H](C(C)(C)C)NC(=O)O[C@@H]1C[C@H]1CCCCCc1c(nc3ccccc3c1OC1C3CNCC1COC3)O2)C(=O)NS(=O)(=O)C1(C)CC1 (single isomer, unassigned) [Example 259, trifluoroacetate]
Ki [2]: 7.4 nM
Ki [1, 4]: 0.03 nM
Ki [1, 5]: 0.35 nM

C=C[C@@H]1C[C@]1(NC(=O)[C@@H]1C[C@@H]2CN1C(=O)[C@H](C(C)(C)C)NC(=O)O[C@@H]1C[C@H]1CCCCCc1c(nc3ccccc3c1OC1CC3CCC(C1)N3C(=O)OC(C)(C)C)O2)C(=O)NS(=O)(=O)C1(C)CC1 (single isomer, unassigned) [Example 273]
Ki [2]: 68 nM
Ki [1, 4]: 0.1 nM
Ki [1, 5]: 1.85 nM

C=C[C@@H]1C[C@]1(NC(=O)[C@@H]1C[C@@H]2CN1C(=O)[C@H](C(C)(C)C)NC(=O)O[C@@H]1C[C@H]1CCCCCc1c(nc3ccccc3c1OC1CC3CCC(C1)N3)O2)C(=O)NS(=O)(=O)C1(C)CC1 (single isomer, unassigned) [Example 274]
Ki [2]: 0.094 nM
Ki [1, 4]: 0.015 nM
Ki [1, 5]: 0.015 nM

C=C[C@@H]1C[C@]1(NC(=O)[C@@H]1C[C@@H]2CN1C(=O)[C@H](C(C)(C)C)NC(=O)O[C@@H]1C[C@H]1CCCCCc1c(nc3ccccc3c1OC1CC3CCC(C1)N3CCOC)O2)C(=O)NS(=O)(=O)C1(C)CC1 (single isomer, unassigned) [Example 276]
Ki [2]: 0.14 nM
Ki [1, 4]: 0.013 nM
Ki [1, 5]: 0.019 nM

C=C[C@@H]1C[C@]1(NC(=O)[C@@H]1C[C@@H]2CN1C(=O)[C@H](C(C)(C)C)NC(=O)O[C@@H]1C[C@H]1CCCCCc1c(nc3ccccc3c1OC1CC3CCC(C1)N3CC)O2)C(=O)NS(=O)(=O)C1(C)CC1 (single isomer, unassigned) [Example 277]
Ki [2]: 0.078 nM
Ki [1, 4]: 0.008 nM
Ki [1, 5]: 0.013 nM

C=C[C@@H]1C[C@]1(NC(=O)[C@@H]1C[C@@H]2CN1C(=O)[C@H](C(C)(C)C)NC(=O)O[C@@H]1C[C@H]1CCCCCc1c(nc3ccccc3c1OC1CC3CCC(C1)N3C(=O)OC(C)(C)C)O2)C(=O)NS(=O)(=O)C1(C)CC1 (single isomer, unassigned) [Example 278]
Ki [2]: 740 nM
Ki [1, 4]: 0.86 nM
Ki [1, 5]: 20 nM

C=C[C@@H]1C[C@]1(NC(=O)[C@@H]1C[C@@H]2CN1C(=O)[C@H](C(C)(C)C)NC(=O)O[C@@H]1C[C@H]1CCCCCc1c(nc3ccccc3c1OC1CC3CCC(C1)N3)O2)C(=O)NS(=O)(=O)C1(C)CC1 (single isomer, unassigned) [Example 279, trifluoroacetate]
Ki [2]: 2.6 nM
Ki [1, 4]: 0.012 nM
Ki [1, 5]: 0.145 nM

C=C[C@@H]1C[C@]1(NC(=O)[C@@H]1C[C@@H]2CN1C(=O)[C@H](C(C)(C)C)NC(=O)O[C@@H]1C[C@H]1CCCCCc1c(nc3ccccc3c1OC1CC3CCC(C1)N3CCOC)O2)C(=O)NS(=O)(=O)C1(C)CC1 (single isomer, unassigned) [Example 280]
Ki [2]: 4.65 nM
Ki [1, 4]: 0.024 nM
Ki [1, 5]: 0.28 nM

C=C[C@@H]1C[C@]1(NC(=O)[C@@H]1C[C@@H]2CN1C(=O)[C@H](C(C)(C)C)NC(=O)O[C@@H]1C[C@H]1CCCCCc1c(nc3ccccc3c1OC1CC3CCC(C1)N3CC)O2)C(=O)NS(=O)(=O)C1(C)CC1 (single isomer, unassigned) [Example 281]
Ki [2]: 1.25 nM
Ki [1, 4]: 0.016 nM
Ki [1, 5]: 0.125 nM

C=C[C@@H]1CC1(NC(=O)[C@@H]1C[C@@H]2CN1C(=O)[C@H](C1CCCCC1)NC(=O)O[C@@H]1C[C@H]1CCCCCc1c(nc3ccccc3c1OC1CCNCC1F)O2)C(=O)NS(=O)(=O)C1(C)CC1 (stereo in doubt) [Example 293, (3S,4R)-4-{[(1aR,5S,8S,10R,22aR)-5-cyclohexyl-8-{[(1R,2S)-2-ethenyl-1-{[(1-methylcyclopropyl)sulfonyl]carbamoyl}cyclopropyl]carbamoyl}-3,6-dioxo-1,1a,3,4,5,6,9,10,18,19,20,21,22,22a-tetradecahydro-8H-7,10-methanocyclopropa[18,19][1,10,3,6]dioxadiazacyclononadecino[11,12-b]quinolin-17-yl]oxy}-3-fluoropiperidinium chloride]
Ki [2]: 1.3 nM
Ki [1, 4]: 0.029 nM
Ki [1, 5]: 0.138 nM

C=C[C@@H]1C[C@]1(NC(=O)[C@@H]1C[C@@H]2CN1C(=O)[C@H](C1CCCC1)NC(=O)O[C@]1(C)C[C@H]1CC/C=C/Cc1c(nc3ccccc3c1O)O2)C(=O)NS(=O)(=O)C1CC1 [Example 19, (1aR,5S,8S,10R,19E,22aR)-5-cyclopentyl-N-{(1R,2S)-1-[(cyclopropylsulfonyl)carbamoyl]-2-ethenylcyclopronyl}-17-hydroxy-1a-methyl-3,6-dioxo-1,1a,3,4,5,6,9,10,18,21,22,22a-dodecahydro-8H-7,10-methanocyclopropa[18,19][1,10,3,6]dioxadiazacyclononadecino[11,12-b]quinoline-8-carboxamide]
Ki [1, 3]: 0.091 nM
